“Also recorded” adds a separate entry of the source. Square brackets hold non-standard residues; d marks the D form. Ends that are not written are not given here. dNal = D-naphthylalanine (D-Nal)
Legend:
Candida albicans [1] = assay: Inhibition of Candida albicans colony formation (viability estimated from colonies formed); assay type: cell-based; details: for % Inhib. (inhibitory effect on Candida Albicans): clinical isolates, 1×10^6/ml in HBSS, two hours at 37° C. with peptide, colonies counted after 48 hours, peptide concentration for the table not given (range tested 10^−15 to 10^−4 M); for antimicrobial activity toward Candida albicans (result in words): Table 1 / FIG. 1
Procedure: Clinical isolates of C. albicans were also obtained from the collection of the Department of Microbiology, Ospedale Maggiore di Milano. Cultures of C. albicans were maintained on Sabouraud's agar slants and periodically transferred to Sabouraud's agar plates and incubated for 48 hours at 28° C. To prepare stationary growth-phase yeast, a colony may be taken from the agar plate, transferred into 30 ml of Sabouraud-dextrose broth, and incubated for 72 hours at 32° C. Cells were centrifuged at 1000×g for ten minutes, and the pellet may be washed twice with distilled water. Cells were counted and suspended in Hank's balanced salt solution (“HBSS”) to the desired concentration. Viability, determined by exclusion of 0.01% methylene blue, remained greater than 98%.
At 1×10^6/ml in HBSS, these fungi were incubated in the presence or absence of modified α-MSH peptides at concentrations ranging from 10^−15 to 10^−4 M for two hours at 37° C. Cells were then washed in cold distilled water and diluted with HBSS to a concentration of 100 organisms/ml. One-milliliter aliquots were then dispensed on blood agar plates and incubated for 48 hours at 37° C. The organism's viability may be estimated from the number of colonies formed.

Candida albicans [2] = details: comparison value, see U.S. patent application Ser. No. 09/535,066; cited from earlier work

Substance	% Inhib. (inhibitory effect on Candida Albicans) (Candida albicans [1]) [%]	antimicrobial activity toward Candida albicans (result in words) (Candida albicans [1])	inhibition of C. albicans colonies by naturally occurring α-MSH (Candida albicans [2])
HFRWGAPV [SEQ. ID. NO. 18]	26.2	–	–
HFRWGKAV [SEQ. ID. NO. 19]	12.8	–	–
HFRWGKDV [SEQ. ID. NO. 38]	5.9	–	–
HFRWGKEV [SEQ. ID. NO. 42]	11.2	–	–
HFRWGKFV [SEQ. ID. NO. 32]	90.0	–	–
HFRWGKGV [SEQ. ID. NO. 28]	41.8	–	–
HFRWGKKV [SEQ. ID. NO. 44]	41.0	–	–
HFRWGKPA [SEQ. ID. NO. 20]	68.4	–	–
HFRWGKPL [SEQ. ID. NO. 24]	86.6	–	–
HFRWGKSV [SEQ. ID. NO. 30]	32.3	No substantial modification in activity	–
HFR[dW]GKPV [SEQ. ID. NO. 23]	81.9	–	–
H[dF]RWGK[dF]V [SEQ. ID. NO. 35]	82.0	–	–
His-DNal-Arg-Trp-Gly-Lys-Ala-Val (H[dNal]RWGKAV-OH) [SEQ. ID. NO. 26]	28.0	–	–
His-DNal-Arg-Trp-Gly-Lys-Asp-Val (H[dNal]RWGKDV-OH) [SEQ. ID. NO. 41]	16.8	decreased activity	–
His-DNal-Arg-Trp-Gly-Lys-DAla-Val (H[dNal]RWGK[dA]V-OH) [SEQ. ID. NO. 27]	69.2	–	–
His-DNal-Arg-Trp-Gly-Lys-DPhe-Val (H[dNal]RWGK[dF]V-OH) [SEQ. ID. NO. 37]	57.6	potent antimicrobial activity	–
His-DNal-Arg-Trp-Gly-Lys-Glu-Val (H[dNal]RWGKEV-OH) [SEQ. ID. NO. 43]	32.3	decreased activity	–
His-DNal-Arg-Trp-Gly-Lys-Gly-Val (H[dNal]RWGKGV-OH) [SEQ. ID. NO. 29]	36.2	–	–
His-DNal-Arg-Trp-Gly-Lys-Lys-Val (H[dNal]RWGKKV-OH) [SEQ. ID. NO. 45]	85.4	–	–
His-DNal-Arg-Trp-Gly-Lys-Phe-Val (H[dNal]RWGKFV-OH) [SEQ. ID. NO. 36]	99.7	potent antimicrobial activity; also recorded: remarkable anticandidacidal activity	–
His-DNal-Arg-Trp-Gly-Lys-Pro-Val (H[dNal]RWGKPV-OH) [SEQ. ID. NO. 22]	95.3	increased activity	–
His-DNal-Arg-Trp-Gly-Lys-Ser-Val (H[dNal]RWGKSV-OH) [SEQ. ID. NO. 31]	73.9	No substantial modification in activity	–
His-DPhe-Arg-Trp-Gly-Lys-Asp-Val (H[dF]RWGKDV-OH; N-terminus assumed; SMILES CC(C)[C@H](NC(=O)[C@H](CC(=O)O)NC(=O)[C@H](CCCCN)NC(=O)CNC(=O)[C@H](Cc1c[nH]c2ccccc12)NC(=O)[C@H](CCCNC(=N)N)NC(=O)[C@@H](Cc1ccccc1)NC(=O)[C@@H](N)Cc1c[nH]cn1)C(=O)O) [SEQ. ID. NO. 40]	3.7	–	–
His-DPhe-Arg-Trp-Gly-Lys-Phe-Val (H[dF]RWGKFV-OH; N-terminus assumed; SMILES CC(C)[C@H](NC(=O)[C@H](Cc1ccccc1)NC(=O)[C@H](CCCCN)NC(=O)CNC(=O)[C@H](Cc1c[nH]c2ccccc12)NC(=O)[C@H](CCCNC(=N)N)NC(=O)[C@@H](Cc1ccccc1)NC(=O)[C@@H](N)Cc1c[nH]cn1)C(=O)O) [SEQ. ID. NO. 34]	89.6	–	–
His-DPhe-Arg-Trp-Gly-Lys-Pro-Val (H[dF]RWGKPV-OH; N-terminus assumed; SMILES CC(C)[C@H](NC(=O)[C@@H]1CCCN1C(=O)[C@H](CCCCN)NC(=O)CNC(=O)[C@H](Cc1c[nH]c2ccccc12)NC(=O)[C@H](CCCNC(=N)N)NC(=O)[C@@H](Cc1ccccc1)NC(=O)[C@@H](N)Cc1c[nH]cn1)C(=O)O) [SEQ. ID. NO. 21]	79.4	–	–
His-Phe-Arg-Trp-Gly-Lys-DAla-Val (HFRWGK[dA]V-OH; N-terminus assumed; SMILES CC(C)[C@H](NC(=O)[C@@H](C)NC(=O)[C@H](CCCCN)NC(=O)CNC(=O)[C@H](Cc1c[nH]c2ccccc12)NC(=O)[C@H](CCCNC(=N)N)NC(=O)[C@H](Cc1ccccc1)NC(=O)[C@@H](N)Cc1c[nH]cn1)C(=O)O) [SEQ. ID. NO. 25]	43.7	–	–
His-Phe-Arg-Trp-Gly-Lys-DAsp-Val (HFRWGK[dD]V-OH; N-terminus assumed; SMILES CC(C)[C@H](NC(=O)[C@@H](CC(=O)O)NC(=O)[C@H](CCCCN)NC(=O)CNC(=O)[C@H](Cc1c[nH]c2ccccc12)NC(=O)[C@H](CCCNC(=N)N)NC(=O)[C@H](Cc1ccccc1)NC(=O)[C@@H](N)Cc1c[nH]cn1)C(=O)O) [SEQ. ID. NO. 39]	15.7	–	–
His-Phe-Arg-Trp-Gly-Lys-DPhe-Val (HFRWGK[dF]V-OH; N-terminus assumed; SMILES CC(C)[C@H](NC(=O)[C@@H](Cc1ccccc1)NC(=O)[C@H](CCCCN)NC(=O)CNC(=O)[C@H](Cc1c[nH]c2ccccc12)NC(=O)[C@H](CCCNC(=N)N)NC(=O)[C@H](Cc1ccccc1)NC(=O)[C@@H](N)Cc1c[nH]cn1)C(=O)O) [SEQ. ID. NO. 33]	97.5	–	–
His-Phe-Arg-Trp-Gly-Lys-Pro-DVal (HFRWGKP[dV]-OH; N-terminus assumed; SMILES CC(C)[C@@H](NC(=O)[C@@H]1CCCN1C(=O)[C@H](CCCCN)NC(=O)CNC(=O)[C@H](Cc1c[nH]c2ccccc12)NC(=O)[C@H](CCCNC(=N)N)NC(=O)[C@H](Cc1ccccc1)NC(=O)[C@@H](N)Cc1c[nH]cn1)C(=O)O) [SEQ. ID. NO. 17]	82.5	–	–
SYSMEHFRWGKPV [α-MSH, naturally occurring 13-amino acid peptide, α-melanocyte-stimulating hormone]	–	–	less than 80%
